Key:
cloned human FP receptor = target: T1, cloned human FP receptor (Homo sapiens, UniProt P43088); test: [3H]PGF2α competition binding assay with membranes of pcDNAIamp-hFP transfected COS-M6 cells; settings: for rank order of potency for competition of [3H]PGF2α specific binding: transfected COS-M6 membranes, 0.03 nM-10 μM competitor
T1 construct: A long open reading frame (1077 bp) was determined which would result in a 359 amino acid polypeptide; expressed in transfected cells; host or cells: COS-M6 cells, transient DEAE-dextran transfection with pcDNAIamp-hFP; 100,000 x g membrane fraction
T1 sequence (P43088 whole entry): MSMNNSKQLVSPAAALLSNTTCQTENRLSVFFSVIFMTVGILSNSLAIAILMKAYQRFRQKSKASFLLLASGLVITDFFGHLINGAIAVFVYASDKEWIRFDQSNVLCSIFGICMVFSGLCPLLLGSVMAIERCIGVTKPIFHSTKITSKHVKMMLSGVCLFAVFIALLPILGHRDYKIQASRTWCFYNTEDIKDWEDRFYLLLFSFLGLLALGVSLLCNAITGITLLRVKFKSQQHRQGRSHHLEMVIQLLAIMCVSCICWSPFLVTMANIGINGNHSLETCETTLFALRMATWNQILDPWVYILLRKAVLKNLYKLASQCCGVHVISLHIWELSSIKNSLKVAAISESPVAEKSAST
Protocol: The recently cloned human prostaglandin F2a (FP) receptor was subcloned into the pcDNA lamp plasmid (Invitrogen) and transfected into COS-M6 cells using the DEAE-dextran method. The cells were maintained in culture for 72 h, then harvested and membranes prepared by differential centrifugation (1000×g for 10 min, then 100,000×g for 30 min) following lysis of the cells by nitrogen cavitation. […] Incubations were conducted for 1 h at room temperature prior to separation of the bound and free radioligand by rapid filtration through Whatman GF/B filters presoaked at 4° C. in washing buffer ([…] (pH 6.0) containing 0.01% bovine serum albumin).

FP receptor [1] = target: T2, FP receptor (Homo sapiens, UniProt P43088); test: electrophysiological assay (Ca2+-dependent Cl- current) in pcDNAIamp-FP-injected Xenopus oocytes; type: cell-based; settings: perfusion of 10 nM, oocyte voltage clamped at -60 mV
T2 construct: A long open reading frame (1077 bp) was determined which would result in a 359 amino acid polypeptide; expressed in transfected cells; host or cells: Xenopus laevis oocytes (stage 5-6), nuclear injection of 1-5 ng pcDNAIamp-FP plasmid
T2 sequence (P43088 whole entry, the tested form may be a part): as the sequence (P43088 whole entry) above
Protocol: (§1) Ooctyes were taken from adult females of Xenopus laevis using standard surgical procedure (Colman, A., 1984 In: Transcription and Translation—A Practical Approach, IRL Press). To remove follicle cells, oocytes were treated for 2-3 h with freshly made collagenase (2 mg/ml, type 2, Worthington Biochemical Corp., Freehold, N.J.) in Ca^2+-free ND96 solution (ND96 in mM: NaCl 96, KCl 2, MgCl2 1, HEPES 5, Na-pyruvate 2.5, theophylline 0.5, gentamicin […], +1.8 CaCl2, pH 7.6). Defolliculated stage 5-6 oocytes were selected and maintained in ND96 solution. Ooctye nuclei were injected with 1-5 ng of pcDNAIamp-PP and then incubated at 18° C. for 48 h before challenge with agonist. Functional activity was determined by measurement of either agonist-induced Ca^2+-dependent Cl^− current or light emission in oocytes injected with the Ca^2+-specific photoprotein aequorin (J. Blinks, Friday Harbor Photoproteins, Wash.), (Giladi and Spindel 1991 Biotechniques, 10, pp 744-747). […] Ligand-containing solution was perfused and the current response was recorded. For the luminometric assay, aequorin-loaded oocytes (100 ng/oocyte) were placed individually in cuvettes containing 0.4 ml ND96 and the light emission provoked by ligand addition was recorded using a Bio-Orbit 1251 luminometer (Fisher Sci. Ltd.).

FP receptor [2] = target: T2, FP receptor; test: aequorin luminescence assay in pcDNAIamp-FP-injected Xenopus oocytes; type: cell-based; settings: aequorin-loaded oocytes, compared to PGE2
Protocol: as §1

agonist-induced Ca2+-dependent Cl- current response (FP receptor [1])	IC50 (cloned human FP receptor)	agonist potency from dose-response of aequorin light emission (FP receptor [2])	Compound	rank order of potency for competition of [3H]PGF2α specific binding (cloned human FP receptor)
			CCCCC[C@H](O)/C=C/[C@H]1C(=O)C[C@H](O)[C@@H]1C/C=C\CCCC(=O)O [PGD2]	PGF2α=fluprostenol>PGD2>>PGE2≈U46619>iloprost
			CC#CCC(C)[C@H](O)/C=C/[C@@H]1[C@H]2C/C(=C/CCCC(=O)O)C[C@H]2C[C@H]1O (some centres unmarked) [iloprost]	PGF2α=fluprostenol>PGD2>>PGE2≈U46619>iloprost
			CCCCC[C@H](O)/C=C/[C@@H]1[C@@H](C/C=C\CCCC(=O)O)[C@H]2CO[C@@H]1C2 [U46619]	PGF2α=fluprostenol>PGD2>>PGE2≈U46619>iloprost
prominent current responses	3.5 nM	more potent agonists	O=C(O)CCC/C=C\C[C@@H]1[C@@H](/C=C/[C@@H](O)COc2cccc(C(F)(F)F)c2)[C@H](O)C[C@@H]1O (racemic) [fluprostenol]	PGF2α=fluprostenol>PGD2>>PGE2≈U46619>iloprost
			CCCCC[C@H](O)/C=C/[C@H]1[C@H](O)CC(=O)[C@@H]1C/C=C\CCCC(=O)O [PGE2]	PGF2α=fluprostenol>PGD2>>PGE2≈U46619>iloprost
